Among the data in ChEMBL document CHEMBL1130604, “Synthesis and biological activity of novel thiazolidinediones” (1998) are Reduction values, retold here.

In experiment [1] the test system is Mus musculus. The experiment is described as follows: Compound was tested for antidiabetic activity by measuring percentage reduction in triglycerides at a dose of 30 mg/kg; NE=No effect. The class given is functional, organism-based. On the set-up: dose 30 mg/kg.
The test system of experiment [2] is Rattus norvegicus. In words: Compound was tested for antiinflammatory activity by measuring percentage reduction in inflammation at a dose of 100 mg/kg in rats. The class given is functional.
Experiment [3] deals with Mus musculus. The experiment is described as follows: Compound was tested for antidiabetic activity by measuring percentage reduction in plasma glucose at a dose of 30 mg/kg; NE=No effect. The format is functional, organism-based. On the set-up: dose 30 mg/kg.
Experiment [4] deals with Mus musculus. The experiment is described as follows: Compound was tested for antidiabetic activity by measuring percentage reduction in plasma glucose at a dose of 30 mg/kg. The class given is functional.
Experiment [5] deals with Mus musculus. The experiment is described as follows: Compound was tested for antidiabetic activity by measuring percentage reduction in triglycerides at a dose of 30 mg/kg. The format is functional.
Experiment [6] deals with Rattus norvegicus. The experiment is described as follows: Compound was tested for antiinflammatory activity by measuring percentage reduction in inflammation at a dose of 100 mg/kg in rats; NE=No effect. On the set-up: dose 100 mg/kg. The class given is functional, organism-based.

Activity calls are given as the source filed them. No cut-off for these calls is given here.

For `COc1ccc2cc(/C(CC(C)=O)=C3/SC(=O)NC3=O)ccc2c1`, the Reduction result in experiment [1] and in experiment [3] was “inactive” throughout. In addition, the Reduction in experiment [2] amounted to 7%.

For the compound `O=C1NC(=O)C(Cc2ccc3cc(OCc4ccccc4F)ccc3c2)S1` (stereo unspecified) [NETOGLITAZONE], the Reduction is 60% in experiment [4], 72% in experiment [5] and 18% in experiment [2].

With `COc1ccc2cc(CCC(C)C3SC(=O)NC3=O)ccc2c1` (stereo unspecified), the Reduction turned out to be 8% in experiment [4], 44% in experiment [5] and 17% in experiment [2].

In the case of `COc1ccc2cc(CCC(C)=O)ccc2c1` [NABUMETONE], the Reduction result in experiment [1] and in experiment [3] was “inactive” in each case. The same compound showed a Reduction in experiment [2] of 30%.

As to `COc1ccc2cc(/C(CC(C)=O)=C3\SC(=O)NC3=O)ccc2c1`, the Reduction in experiment [4] stood at 16%; in experiment [2] it was 25%. In experiment [1], the Reduction entry is “inactive”.

Take `COc1ccc2cc(/C(C)=C3/SC(=O)NC3=O)ccc2c1`: the figures for the Reduction in experiment [4] and in experiment [2] were 26% and 7%, respectively. Also, in experiment [1], the Reduction result was “inactive”.

Take `C/C(CCc1ccc2cc(OCC3(C)CCc4c(C)c(O)c(C)c(C)c4O3)ccc2c1)=C1/SC(=O)NC1=O` (stereo unspecified): the Reduction entry in experiment [1] and in experiment [3] was “inactive” each time. In experiment [2], this compound registered a Reduction of 12%.

`C/C(CCc1ccc2cc(O)ccc2c1)=C1\SC(=O)NC1=O` registered a Reduction in experiment [4] of 20%. For the same compound, the Reduction result in experiment [1] and in experiment [6] was “inactive” throughout.

For the compound `Cc1c(C)c2c(c(C)c1O)CCC(C)(COc1ccc(CC3SC(=O)NC3=O)cc1)O2` (stereo unspecified) [TROGLITAZONE], the Reduction in experiment [4] is 16%; in experiment [5], 50%; in experiment [2], 3%.

On to `C/C(=C1\SC(=O)NC1=O)c1ccco1`, for which the Reduction is on record as 16% in experiment [4] and 12% in experiment [2]. For the same compound, the Reduction result in experiment [1] is “inactive”.

In experiment [5], `C/C(=C1/SC(=O)NC1=O)c1cccs1` displayed a Reduction of 18%. Moreover, the Reduction result in experiment [6] and in experiment [3] was “inactive” each time.

Consider `COc1ccc2cc(CC/C(C)=C3/SC(=O)NC3=O)ccc2c1`, for which the Reduction in experiment [4] is given as 16%; in experiment [5] it was 50%; in experiment [2] it was 10%.
